Where two headings read alike, the source gives them in different places. Blank lines part the entries; values can stand above or below the compound they belong to.
Assays:
pKa determination = format: physicochemical
rat NTS1-H4 receptor = test: SPR kinetic binding of reference ligands on captured NTS1-H4 receptor
Experimental: All SPR binding experiments were performed on Biacore® 3000, T200 and Biacore 4000 (GE Healthcare, Uppsala, Sweden) instruments at 15°C in a running buffer composed of 20 mM Tris, 150 mM NaCl, 0.01% (v/v) L-MNG, 2% (v/v) DMSO, pH 8.0, at flow of 30 μl·min^-1. Running buffer was prepared freshly every day and filtered with Express™Plus Steritop filters with 0.22 μm cut off (Millipore, Billerica, MA, USA) and degassed prior to SPR analysis. Dose-response experiments for peptides were performed in the buffer without DMSO, as the analyzed peptide concentration range was in nM range and it was not necessary to work with DMSO in the running buffer to correct for the resonance signals. […]
All SPR data processing and analyses were performed using BiaEvaluation Software (version 1.0 (Biacore 4000) and 4.1 (Biacore 3000)), and GraphPadPrism (version 6.04). All monitored binding resonance signals were corrected regarding DMSO solvent signals and further double-referenced, i. e., signals monitored on the binding active channel were subtracted by signals from the reference channel (sensor surface not modified with any reference protein) and by buffer signals. […]

NTS1-H4 receptor = test: SPR competition of NT8-13 and SR142948 on NTS1-H4 receptor; format: binding, rat; conditions: 100 nM NT8-13 then 100 nM SR142948 injected subsequently
Experimental: Supplementary file pone.0175842.s003.pdf: S3 Fig Competition of neurotensin peptide NT8-13 and antagonist SR142948 on the NTS1-H4 receptor. NT8-13 agonist (saturating concentration of 100 nM) and antagonist SR142948 (saturating concentration of 100 nM) were injected subsequently over the NTS1-H4 receptor-coated surface. No binding of SR142948 was detected on the NTS1-H4 receptor that had been saturated previously by agonist NT8-13 peptide, indicating complete occupancy of the binding site and binding to the same binding site. (PDF) Click here for additional data file.

NTS1-H4 = target: NTS1-H4; set-up: method as in PMID 25064156; conditions: competition with fluorescently labeled NT8-13, NTS1-H4-coated beads; cited from earlier work

Compound: COc1cccc(S(=O)(=O)c2ccccc2CC(N)=O)c1 [fragment 2]
pKa1 ± σ (pKa determination): out of range

Compound: Nc1nnc2c(C(F)(F)F)nc3ccccc3n12 [fragment 1]
pKa (pKa determination; read-out: pKa1 ± σ): 2.14 ± 0.04

Compound: SR142948
Kd (rat NTS1-H4 receptor): 0.4 nM
binding to NTS1-H4 receptor previously saturated by NT8-13 (NTS1-H4 receptor): No binding
Ki (NTS1-H4): 0.5 nM

Now from value to compound:

pKa (pKa determination; read-out: pKa1 ± σ): 4.86 ± 0.08
Compound: COc1ccc(Cc2nn[nH]n2)cc1 [fragment 4]

pKa (pKa determination; read-out: pKa1 ± σ): 6.49 ± 0.04
pKa (pKa determination; read-out: pKa2): 11.04 ± 0.08
Compound: COc1ccc(N(C(C)C)S(N)(=O)=O)cc1 [fragment 3]

— paper PMC5433701, “SPR-based fragment screening with neurotensin receptor 1 generates novel small molecule ligands” (PLoS ONE, 2017)
